Laboratory results published in US20170260169A1, “INHIBITORS FOR STEROID RESPONSE ELEMENTS AND RNA POLYMERASE II AND RELATED METHODS” (priority 2007, published 2017).

Tests used:
GILZ enhancer GRE1 = assay: Quantitative DNase I footprint titration on pKAM5 fragment, GRE1; format: binding
Description: Detailed experimental protocols are reported elsewhere (44). The GILZ enhancer contains two GREs separated by 22 base pairs (46). GRE 1 is 5'-[NT]=3' (SEQ ID NO:5) and GRE 2 is […] ID NO:7). The DNA binding of polyamides 1 and 2 on these sequences was measured by quantitative DNase I footprint. […] […]).

[1] = Serum circulation after subcutaneous injection in C57BL/6 mice; format: in vivo; settings: 120 nmol, 5% DMSO/PBS
Description: To investigate if polyamide 77 could be detected in peripheral blood after SC injections, 120 nmol of 77 (in 5% DMSO/PBS) was injected into the right flank of four C57BL/6 mice. Blood was collected from anesthetized mice via retroorbital collection at 5 minutes, 4 h, and 12 h after injection, then processed by methods previously described and analyzed by HPLC (35). For measurement of serum PSA (KLK3) and uric acid, blood was collected from anesthetized mice via retroorbital collection at experimental endpoint and serum was separated from blood by centrifugation. Serum PSA (KLK3) was measured by ELISA (R&D systems) according to manufacturer's instructions. Uric acid was measured as described (36).
We synthesized four structurally related polyamides (FIG. 28) that have an identical Py-Im sequence ImPyPyPy-γ-ImPyPyPy-NHMe-IPA.

[2] = Liver microsomal stability, human; settings: 1 μM, Human, 1 hr at 37° C., 1 mg/ml microsomes
Description: Briefly, each polyamide was incubated with 1 mg/ml human or mouse microsomes at 37° C. The reaction was incubated in 100 mM KH2PO4, 2 mM NADPH, 3 mM MgCl2 at pH 7.4. Samples were also incubated in the absence of NADPH to detect NADPH-free degradation. After 60 min the samples were mixed with an equal volume of ice cold methanol stop solution. The mixture was allowed to sit on ice for at least 10 min and mixed with an equal volume of water. The samples were then centrifuged to remove the precipitates and the samples were analyzed by LC/MS/MS. Data represents % remaining by comparing with time zero concentration. The experiments were performed in duplicate.

RNAP2 large subunit RPB1 = assay: Immunoblot of RPB1 protein in LNCaP cells; format: cell-based
Description: (§1) Samples for immunoblot analysis were prepared by plating LNCaP or DU145 cells at 1 million cells per 10 cm plate. Cells were allowed to adhere for 24-36 hr prior to incubation with compound. After the appropriate incubation time cells were washed once with ice cold PBS and harvested in ice cold 125 μL lysis buffer (50 mM Tris-HCl pH 7.4, 150 mM NaCl, 1 mM EDTA, 1% Triton X100) containing protease inhibitor cocktail (Roche), 1 mM PMSF (Sigma), and phosphatase inhibitors (Sigma). Samples were allowed incubate on ice for 10 min with vortexing once every 3 min. Cellular debris was pelleted by spinning at 14,000 rpm for 15 min to collect the supernatant. Samples were then quantified for protein content with the Bradford assay (Bio-rad) and boiled with 4× sample buffer (Li-Cor) for 5 min. Protein electrophoresis was performed in 4-20% precast Tris glycine SDS gels (Bio-rad) and transferred to PVDF membranes. Membrane blocking was done with Odyssey Blocking Buffer (Li-Cor). The following antibodies used to probe changes in protein levels or phosphorylation states: RBP1 (Santa Cruz Biotechnology, N20), p53 (Santa Cruz Biotechnology, DO1), phospho-Chk2-Thr68 (Cell Signaling Technology), Phospho-p53-Ser15 (Cell Signaling Technology), phosphor-H2A.X-Ser139 (Cell Signaling Technology), phosphor-ATM-Ser1981 (Abcam), phosphor-DNA-PKcs-Ser2056 (Abcam), and […] (Abcam). […]

RPB1 = RPB1 protein ELISA in LNCaP cells; format: cell-based; settings: polyamide 10 μM 72 hr; doxorubicin 1 μM 24 hr
Description: […] Cells treated with DMSO vehicle and 1 μM doxorubicin for 24 h were used as control. Cellular RBP1 levels were determined by a RPB1 specific ELISA kit (Cusabio Life Sciences) according to manufacturer's instructions. Total cellular p53 protein level was determined with a pan-p53 ELISA kit (Roche) according to manufacturer's instructions. Assays were performed in biological triplicates.

[3] = test system: transcripts in DHT-stimulated LNCaP cells; assay: Gene expression with Affymetrix Human Genome U133 Plus 2.0 arrays, DHT-stimulated LNCaP cells; format: cell-based
Description: LNCaP cells were plated in 12-well plates at a density of 80-100×10^3 cells per well. Media, polyamide treatments, and time courses were the same as described above. Bicalutamide was added 2 h before DHT stimulation. RNA was isolated as described in ref. 21. From this point, experiments were carried out at the Millard and Muriel Jacobs Gene Expression Facility at the California Institute of Technology. Labeled mRNA was hybridized to Affymetrix high-density Human Genome U133 Plus 2.0 arrays according to established protocols. Gene expression was analyzed by using Resolver (Rosetta Biosoftware, Seattle, Wash.). Data were uploaded to the Gene Expression Omnibus repository (accession no. GSE7708).
Global effects of polyamides 1 and 2 and bicalutamide on gene expression in DHT-stimulated LNCaP cells were monitored with Affymetrix (Santa Clara, Calif.) high-density Human Genome U133 Plus 2.0 arrays, which interrogate >50,000 transcripts.

[4] = Multiple-dose subcutaneous injections, male C57BL/6J mice; format: in vivo; settings: 1 mg/kg SC every 3 days
Outline: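 Eight-week-old male C57BL/6J mice (n=3 per group) received 1 mg/kg polyamide subcutaneously every 3 days for three injections and were sacrificed two days after the last dose. Serum was collected by retroorbital bleeding for analysis, and two mice per group underwent histopathology.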

[5] = test system: DNA damage markers (γH2A.X, ATM, DNA-PKcs, p53, Chk2); assay: Immunoblot of DNA damage markers, p53 and PARP in LNCaP cells; format: cell-based
Description: as §1

[6] = 10 μM, + DHT, relative to DHT-induced controls, p ≦ 0.01
[7] = relative to DHT-induced controls, + DHT

CN(CCCNC(=O)c1cccc(C(=O)O)c1)CCCNC(=O)c1cc(NC(=O)c2cc(NC(=O)c3cc(NC(=O)c4nc(NC(=O)[C@H](N)CCNC(=O)c5cc(NC(=O)c6cc(NC(=O)c7cc(NC(=O)c8nccn8C)cn7C)cn6C)cn5C)cn4C)cn3C)cn2C)cn1C [Polyamide 1, ImPyPyPy-2-(R)H^2Nγ-ImPyPyPy-NHMe-IPA]
Ka (GILZ enhancer GRE1): 1.9±0.8×10^10 | circulation after SC injection [1]: detectable circulation | Mean remaining parent NADPH-free [2]: 92.3% | Mean remaining parent with NADPH [2]: 96.9% | RPB1 protein level (RNAP2 large subunit RPB1): depletion of RPB1 in a time- and concentration-dependent manner | RPB1 protein (RPB1): decreases | Number of transcripts down-regulated (fold change ≦ −2.0) [3, 6]: 706 | Number of transcripts down-regulated (fold change ≦ −4.0) [3, 6]: 126 | Number of transcripts up-regulated (fold change ≧ 2.0) [3, 6]: 347 | Number of transcripts up-regulated (fold change ≧ 4.0) [3, 6]: 42 | number of transcripts affected by at least 2-fold ([3]; 10 μM, P≦0.01, vs DHT-induced controls): 1,053 | share of interrogated transcripts affected ([3]; 10 μM, at least 2-fold): less than 2% | share of transcripts induced at least 4-fold by DHT whose expression is inhibited ([3]; LNCaP cells): ≈ 35% | number of the 88 DHT-repressed transcripts derepressed at least 2-fold ([3]; P≦0.01): eight | number of the 199 DHT-induced transcripts inhibited at least 2-fold ([3]; P≦0.01): 70 | Fold-change of FKBP5 [3, 7]: −3.1 | Fold-change of KLK2 [3, 7]: −2.4 | Fold-change of KLK3 (PSA) [3, 7]: −3.3 | Fold-change of TMPRSS2 [3, 7]: −2.3 | liver and kidney histopathology [4]: mild multifocal hepatocellular necrosis and apoptosis in the liver and mild variable tubular attenuation, karyomegaly and epithelial necrosis and apoptosis in the kidney | liver and kidney serum markers [4]: elevated AST and ALT | weight and physical morbidity ([4]; three injections, listed as 77): no loss in weight or physical morbidities | cellular markers of DNA damage (phosphorylation) [5]: did not induce cellular markers of DNA damage | p53 accumulation and PARP cleavage [5]: modest accumulation of p53 and PARP cleavage were observed
